Experiment [1] deals with Leishmania donovani. Briefly: Induction of cell cycle arrest in antimony resistant Leishmania donovani BHU575 promastigotes assessed as decrease in accumulation of cells in G2/M phase at 5 uM measured after 6 hrs by PI staining based flow cytometry (reference value: 8.8%). In kind it is functional. More on the design: scale not given: the % may be the effect or the level left. On the technique in general: In flow cytometry, cells or beads pass a laser one at a time.

For experiment [2], the system named is Leishmania donovani. Briefly: Induction of cell cycle arrest in antimony resistant Leishmania donovani BHU575 promastigotes assessed as decrease in accumulation of cells in G0/G1 phase at 5 uM measured after 6 hrs by PI staining based flow cytometry (reference value: 80.7%). In kind it is functional. More on the design: scale not given: the % may be the effect or the level left.

In experiment [3] the test system is Leishmania donovani. The experiment in a line: Induction of apoptosis in Leishmania donovani Ag83 promastigotes assessed as late apoptotic cells measured at 5 uM after 6 hrs by Annexin V-FITC/PI staining based flow cytometric analysis (reference value: 0.1%). In kind it is functional.
For experiment [4], the system named is Leishmania donovani. Briefly: Antileishmanial activity against Leishmania donovani Ag83 promastigotes infected in BALB/c mouse assessed as reduction of macrophage at 1 to 10 uM infection by propidium iodide staining analysis. In kind it is functional, organism-based. The settings on record: dose 1-10 µM, time 72-96 hrs, TDE = time-dependent effect.
For experiment [5], the system named is Leishmania donovani. The experiment in a line: Induction of apoptosis in Leishmania donovani Ag83 promastigotes assessed as necrotic cells measured at 5 uM after 12 hrs by Annexin V-FITC/PI staining based flow cytometric analysis. In kind it is functional, organism-based.
The test system of experiment [6] is Leishmania donovani. The experiment in a line: Antileishmanial activity against antimony resistant Leishmania donovani BHU575 promastigotes assessed as cell viability by MTT assay. In kind it is functional, organism-based. On the technique in general: Tetrazolium dyes change colour on reduction, which living cells bring about.
The test system of experiment [7] is Leishmania donovani. Briefly: Induction of cell cycle arrest in Leishmania donovani Ag83 promastigotes assessed as accumulation of cells in S/G2 phase at 5 uM by PI staining based flow cytometry. In kind it is functional, organism-based. As to conditions: time 6-24 hrs.
Experiment [8] has as its system Leishmania donovani. The experiment in a line: Induction of cell cycle arrest in Leishmania donovani Ag83 promastigotes assessed as decrease in accumulation of cells in G2/M phase at 5 uM measured after 12 hrs by PI staining based flow cytometry (reference value: 15.1 %). Also noted: scale not given: the % may be the effect or the level left. The experiment is classed as functional.

In experiment [9] the test system is Leishmania donovani. Briefly: Induction of cell cycle arrest in Leishmania donovani Ag83 promastigotes assessed as decrease in accumulation of cells in G0/G1 phase at 5 uM measured after 24 hrs by PI staining based flow cytometry (reference value: 65.1%). In kind it is functional. More on the design: scale not given: the % may be the effect or the level left.

The test system of experiment [10] is Leishmania donovani. The experiment in a line: Antileishmanial activity against antimony resistant Leishmania donovani BHU575 promastigotes infected in BALB/c mouse assessed as reduction of amastigote burden by measuring parasite count in blood treated after 3 weeks of infection at 5 to 10 mg/kg, ip twice a week for 3 weeks by qPCR based kineto-plastid DNA. The settings on record: dose 5-10 mg/kg. The experiment is classed as functional, organism-based. For orientation: In qPCR the cycle at which signal appears reflects the starting amount.

The subject of experiment [11] is Leishmania donovani. The experiment in a line: Induction of cell cycle arrest in antimony resistant Leishmania donovani BHU575 promastigotes assessed as decrease in accumulation of cells in S phase at 5 uM measured after 24 hrs by PI staining based flow cytometry (reference value: 9.8%). The experiment is classed as functional. More on the design: scale not given: the % may be the effect or the level left.

Experiment [12] has as its system Leishmania donovani. Briefly: Induction of cell cycle arrest in antimony resistant Leishmania donovani BHU575 promastigotes assessed as decrease in accumulation of cells in S phase at 5 uM measured after 12 hrs by PI staining based flow cytometry (reference value: 9.8%). In kind it is functional. More on the design: scale not given: the % may be the effect or the level left.

In experiment [13] the test system is Leishmania donovani. The experiment in a line: Induction of apoptosis in Leishmania donovani Ag83 promastigotes assessed as late apoptotic cells measured at 5 uM after 12 hrs by Annexin V-FITC/PI staining based flow cytometric analysis (reference value: 0.1%). The experiment is classed as functional.
The test system of a further experiment is MCF7. The experiment in a line: Potency index ratio of test compound IC50 to camptothecin IC50 for cytotoxicity against human MCF7 cells. The experiment is classed as functional.
Experiment [14] deals with Leishmania donovani. Briefly: Antileishmanial activity against Leishmania donovani Ag83 promastigotes infected in BALB/c mouse model of visceral leishmaniasis assessed as fold change in T-helper type 1 immunological evoke response in splenocytes by measuring increased IL-12 cytokine level treated after 3 weeks of infection at 5 to 10 mg/kg, ip twice a week for 3 weeks by RT-PCR analysis. As to conditions: dose 5-10 mg/kg. The experiment is classed as functional.

For experiment [15], the system named is Leishmania donovani. Briefly: Induction of apoptosis in Leishmania donovani BHU575 promastigotes assessed as DNA break accumulation measured at 5 uM after 6 to 24 hrs by TUNEL staining based assay. In kind it is functional, organism-based. As to conditions: time 6-24 hrs.

The source made the active and inactive calls. The calls are words filed in the database; no cut-off is given here.

A word on the EC50: it is the concentration giving half of the maximal effect.

Turning to `COc1cc(-c2nc3ccccc3c3nc4ccccn4c23)cc(OC)c1OC`, the Activity in the experiment with Leishmania donovani [1] is 2.6%; in the experiment with Leishmania donovani [2], 70.8%; with Leishmania donovani [3], 52.5%; in the experiment on Leishmania donovani [4], “Tde”; in the experiment on Leishmania donovani [7], “Dose-Dependent Effect”; in the experiment with Leishmania donovani [8] it was 14.5%. The Activity in the experiment with Leishmania donovani [9] is given as 31.5%; with Leishmania donovani [11] it was 22.3%; with Leishmania donovani [12], 23.7%; in the experiment on Leishmania donovani [13], 61%. The outcome in the experiment on Leishmania donovani [5], with Leishmania donovani [10] and in the experiment with Leishmania donovani [15] was Active. In addition, the EC50 in the experiment on Leishmania donovani [6] was 4.8 µM. For the same compound, the “Ratio IC50” value in the experiment on MCF7 was 90. For the same compound, in the experiment on Leishmania donovani [14], the “fold change (FC)” value is given as 10.

The record behind these values is ChEMBL document CHEMBL5316350, “Novel Pyrido[2',1':2,3]imidazo[4,5-c]quinoline Derivative Selectively Poisons Leishmania donovani Bisubunit Topoisomerase 1 to Inhibit the Antimony-Resistant Leishmania Infection in Vivo” (J Med Chem, 2023).
